Experiments:
[1] = system: Tyrosine-protein kinase ABL1 (Homo sapiens), P00519 [H396P]; details: Compound concentration 100.0 nM
[2] = molecular target: Activin receptor type-2A (Homo sapiens) (UniProt P27037); details: Compound concentration 100.0 nM
[3] = molecular target: 5'-AMP-activated protein kinase catalytic subunit alpha-1 (Homo sapiens) (UniProt Q13131); details: Compound concentration 100.0 nM
[4] = system: Serine/threonine-protein kinase B-raf (Homo sapiens), P15056 [V600E]; details: Compound concentration 100.0 nM
Serine/threonine-protein kinase B-raf (Homo sapiens), P15056 [V600E], sequence (P15056 whole entry V600E): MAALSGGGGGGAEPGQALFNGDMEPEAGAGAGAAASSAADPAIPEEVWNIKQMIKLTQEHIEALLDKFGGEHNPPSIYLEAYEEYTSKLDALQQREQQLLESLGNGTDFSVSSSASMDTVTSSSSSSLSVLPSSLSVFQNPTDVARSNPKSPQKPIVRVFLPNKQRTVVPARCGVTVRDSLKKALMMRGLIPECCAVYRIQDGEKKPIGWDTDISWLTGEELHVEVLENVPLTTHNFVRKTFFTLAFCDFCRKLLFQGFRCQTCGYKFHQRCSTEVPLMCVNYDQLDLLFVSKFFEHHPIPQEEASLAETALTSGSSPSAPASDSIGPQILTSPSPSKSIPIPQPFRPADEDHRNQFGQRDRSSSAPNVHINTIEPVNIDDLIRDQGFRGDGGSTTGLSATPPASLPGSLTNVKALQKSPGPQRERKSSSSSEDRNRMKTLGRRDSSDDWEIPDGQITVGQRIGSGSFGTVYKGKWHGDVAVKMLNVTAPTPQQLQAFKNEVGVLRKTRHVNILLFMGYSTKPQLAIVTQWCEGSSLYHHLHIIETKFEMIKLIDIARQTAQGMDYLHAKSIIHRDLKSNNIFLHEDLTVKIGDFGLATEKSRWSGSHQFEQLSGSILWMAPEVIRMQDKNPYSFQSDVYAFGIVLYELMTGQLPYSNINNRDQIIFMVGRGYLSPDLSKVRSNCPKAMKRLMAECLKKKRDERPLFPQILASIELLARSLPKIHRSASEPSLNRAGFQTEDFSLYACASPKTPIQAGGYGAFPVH

[5] = molecular target: Calcium/calmodulin-dependent protein kinase kinase 1 (Homo sapiens) (UniProt Q8N5S9); details: Compound concentration 100.0 nM
[6] = molecular target: Dual specificity protein kinase CLK4 (Homo sapiens) (UniProt Q9HAZ1); details: Compound concentration 100.0 nM
[7] = molecular target: Death-associated protein kinase 2 (Homo sapiens) (UniProt Q9UIK4); details: Compound concentration 100.0 nM
[8] = molecular target: Mitogen-activated protein kinase kinase kinase 12 (Homo sapiens) (UniProt Q12852); details: Compound concentration 100.0 nM
[9] = molecular target: Ephrin type-B receptor 3 (Homo sapiens) (UniProt P54753); details: Compound concentration 100.0 nM
[10] = system: Fibroblast growth factor receptor 3 (Homo sapiens), P22607 [G697C]; details: Compound concentration 100.0 nM
[11] = molecular target: Receptor-type tyrosine-protein kinase FLT3 (Homo sapiens) (UniProt P36888); details: Compound concentration 100.0 nM
[12] = system: Receptor-type tyrosine-protein kinase FLT3 (Homo sapiens), P36888 [K663Q]; details: Compound concentration 100.0 nM
[13] = molecular target: Interleukin-1 receptor-associated kinase 3 (Homo sapiens) (UniProt Q9Y616); details: Compound concentration 100.0 nM
[14] = molecular target: Tyrosine-protein kinase JAK3 (Homo sapiens) (UniProt P52333); details: Compound concentration 100.0 nM
[15] = system: Mast/stem cell growth factor receptor Kit (Homo sapiens), P10721 [D816V]; details: Compound concentration 100.0 nM
[16] = molecular target: Mitogen-activated protein kinase kinase kinase 3 (Homo sapiens) (UniProt Q99759); details: Compound concentration 100.0 nM
[17] = molecular target: MAP/microtubule affinity-regulating kinase 4 (Homo sapiens) (UniProt Q96L34); details: Compound concentration 100.0 nM
[18] = molecular target: Hepatocyte growth factor receptor (Homo sapiens) (UniProt P08581); details: Compound concentration 100.0 nM
[19] = molecular target: Serine/threonine-protein kinase MRCK alpha (Homo sapiens) (UniProt Q5VT25); details: Compound concentration 100.0 nM
[20] = molecular target: Serine/threonine-protein kinase mTOR (Homo sapiens) (UniProt P42345); details: Compound concentration 100.0 nM
[21] = molecular target: Serine/threonine-protein kinase Nek5 (Homo sapiens) (UniProt Q6P3R8); details: Compound concentration 100.0 nM
[22] = molecular target: Platelet-derived growth factor receptor beta (Homo sapiens) (UniProt P09619); details: Compound concentration 100.0 nM
Platelet-derived growth factor receptor beta (Homo sapiens), sequence (P09619 whole entry): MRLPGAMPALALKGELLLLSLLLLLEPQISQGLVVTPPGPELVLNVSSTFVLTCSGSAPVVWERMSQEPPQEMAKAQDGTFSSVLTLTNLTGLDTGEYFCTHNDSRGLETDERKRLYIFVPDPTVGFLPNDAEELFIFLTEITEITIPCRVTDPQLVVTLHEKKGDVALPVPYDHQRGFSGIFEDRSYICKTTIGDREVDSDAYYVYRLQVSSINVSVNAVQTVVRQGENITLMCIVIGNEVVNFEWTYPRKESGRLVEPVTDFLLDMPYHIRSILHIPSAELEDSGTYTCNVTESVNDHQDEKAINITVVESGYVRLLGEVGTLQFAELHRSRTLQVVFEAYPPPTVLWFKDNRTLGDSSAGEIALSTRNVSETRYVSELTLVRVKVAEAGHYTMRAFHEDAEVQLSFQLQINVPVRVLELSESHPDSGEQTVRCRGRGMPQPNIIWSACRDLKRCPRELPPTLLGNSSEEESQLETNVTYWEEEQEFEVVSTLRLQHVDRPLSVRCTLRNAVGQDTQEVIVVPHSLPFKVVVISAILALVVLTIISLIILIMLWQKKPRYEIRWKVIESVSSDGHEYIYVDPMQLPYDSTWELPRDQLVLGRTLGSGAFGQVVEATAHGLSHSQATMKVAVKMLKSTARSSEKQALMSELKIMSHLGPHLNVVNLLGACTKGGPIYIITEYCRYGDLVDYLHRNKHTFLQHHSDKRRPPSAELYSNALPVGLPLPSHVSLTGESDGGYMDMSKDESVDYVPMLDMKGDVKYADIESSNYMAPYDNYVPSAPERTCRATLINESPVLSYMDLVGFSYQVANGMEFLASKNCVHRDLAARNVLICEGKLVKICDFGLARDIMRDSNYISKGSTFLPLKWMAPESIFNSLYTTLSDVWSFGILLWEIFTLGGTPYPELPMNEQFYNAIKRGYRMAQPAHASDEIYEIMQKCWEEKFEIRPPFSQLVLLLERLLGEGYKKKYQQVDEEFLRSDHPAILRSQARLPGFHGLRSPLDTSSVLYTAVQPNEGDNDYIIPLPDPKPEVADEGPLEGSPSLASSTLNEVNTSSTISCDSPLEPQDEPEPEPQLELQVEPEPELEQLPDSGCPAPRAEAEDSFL

[23] = molecular target: Serine/threonine-protein kinase pim-1 (Homo sapiens) (UniProt P11309); details: Compound concentration 100.0 nM
Serine/threonine-protein kinase pim-1 (Homo sapiens), sequence (P11309 whole entry, looked up): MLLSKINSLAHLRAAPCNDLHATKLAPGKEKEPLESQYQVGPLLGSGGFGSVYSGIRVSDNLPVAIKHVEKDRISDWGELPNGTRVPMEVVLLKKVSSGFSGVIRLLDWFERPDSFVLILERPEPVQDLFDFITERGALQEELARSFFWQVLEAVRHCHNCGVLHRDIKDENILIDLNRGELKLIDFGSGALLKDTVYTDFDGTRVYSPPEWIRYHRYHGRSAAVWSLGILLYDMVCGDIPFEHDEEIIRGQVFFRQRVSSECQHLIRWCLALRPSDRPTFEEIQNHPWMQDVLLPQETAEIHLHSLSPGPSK

[24] = molecular target: Serine/threonine-protein kinase PLK1 (Homo sapiens) (UniProt P53350); details: Compound concentration 100.0 nM
[25] = molecular target: Serine/threonine-protein kinase D3 (Homo sapiens) (UniProt O94806); details: Compound concentration 100.0 nM
[26] = molecular target: cGMP-dependent protein kinase 1 (Homo sapiens) (UniProt Q13976); details: Compound concentration 100.0 nM
[27] = molecular target: cGMP-dependent protein kinase 2 (Homo sapiens) (UniProt Q13237); details: Compound concentration 100.0 nM
[28] = molecular target: Proto-oncogene tyrosine-protein kinase receptor Ret (Homo sapiens) (UniProt P07949); details: Compound concentration 100.0 nM
Proto-oncogene tyrosine-protein kinase receptor Ret (Homo sapiens), sequence (P07949 whole entry): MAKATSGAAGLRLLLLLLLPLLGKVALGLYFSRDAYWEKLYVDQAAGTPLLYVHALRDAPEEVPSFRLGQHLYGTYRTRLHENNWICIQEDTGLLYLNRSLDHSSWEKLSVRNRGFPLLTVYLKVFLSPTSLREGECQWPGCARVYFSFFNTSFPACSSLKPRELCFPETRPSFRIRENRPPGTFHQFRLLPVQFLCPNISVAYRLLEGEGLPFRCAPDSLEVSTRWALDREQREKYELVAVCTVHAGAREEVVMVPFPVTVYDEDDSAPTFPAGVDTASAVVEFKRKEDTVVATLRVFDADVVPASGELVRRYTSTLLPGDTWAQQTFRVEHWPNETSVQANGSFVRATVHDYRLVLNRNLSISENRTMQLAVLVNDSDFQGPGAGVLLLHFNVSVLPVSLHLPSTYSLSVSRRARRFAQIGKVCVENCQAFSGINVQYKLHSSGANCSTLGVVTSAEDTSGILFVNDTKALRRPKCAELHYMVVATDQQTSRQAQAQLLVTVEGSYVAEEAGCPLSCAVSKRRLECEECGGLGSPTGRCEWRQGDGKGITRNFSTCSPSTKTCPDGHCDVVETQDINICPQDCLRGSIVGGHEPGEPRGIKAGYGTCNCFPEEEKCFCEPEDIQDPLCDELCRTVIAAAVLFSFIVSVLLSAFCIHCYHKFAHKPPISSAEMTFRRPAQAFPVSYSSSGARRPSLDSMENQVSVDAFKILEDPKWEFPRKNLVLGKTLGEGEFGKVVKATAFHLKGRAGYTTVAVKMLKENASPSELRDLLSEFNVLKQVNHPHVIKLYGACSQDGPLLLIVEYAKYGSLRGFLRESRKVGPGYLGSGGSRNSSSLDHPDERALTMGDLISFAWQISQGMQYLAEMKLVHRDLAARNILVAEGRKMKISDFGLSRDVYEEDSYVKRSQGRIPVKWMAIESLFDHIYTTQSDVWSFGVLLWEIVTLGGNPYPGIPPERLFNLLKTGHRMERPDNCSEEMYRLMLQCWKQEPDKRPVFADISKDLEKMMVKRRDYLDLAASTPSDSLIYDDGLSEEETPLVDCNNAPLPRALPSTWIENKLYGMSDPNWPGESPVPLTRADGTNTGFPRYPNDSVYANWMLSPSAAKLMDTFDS

[29] = molecular target: Ribosomal protein S6 kinase alpha-6 (Homo sapiens) (UniProt Q9UK32); details: Compound concentration 100.0 nM
[30] = molecular target: Serine/threonine-protein kinase Sgk3 (Homo sapiens) (UniProt Q96BR1); details: Compound concentration 100.0 nM
[31] = molecular target: Tyrosine-protein kinase SYK (Homo sapiens) (UniProt P43405); details: Compound concentration 100.0 nM
[32] = molecular target: Serine/threonine-protein kinase tousled-like 2 (Homo sapiens) (UniProt Q86UE8); details: Compound concentration 100.0 nM
[33] = molecular target: Non-receptor tyrosine-protein kinase TYK2 (Homo sapiens) (UniProt P29597); details: Compound concentration 100.0 nM
Non-receptor tyrosine-protein kinase TYK2 (Homo sapiens), sequence (P29597 whole entry): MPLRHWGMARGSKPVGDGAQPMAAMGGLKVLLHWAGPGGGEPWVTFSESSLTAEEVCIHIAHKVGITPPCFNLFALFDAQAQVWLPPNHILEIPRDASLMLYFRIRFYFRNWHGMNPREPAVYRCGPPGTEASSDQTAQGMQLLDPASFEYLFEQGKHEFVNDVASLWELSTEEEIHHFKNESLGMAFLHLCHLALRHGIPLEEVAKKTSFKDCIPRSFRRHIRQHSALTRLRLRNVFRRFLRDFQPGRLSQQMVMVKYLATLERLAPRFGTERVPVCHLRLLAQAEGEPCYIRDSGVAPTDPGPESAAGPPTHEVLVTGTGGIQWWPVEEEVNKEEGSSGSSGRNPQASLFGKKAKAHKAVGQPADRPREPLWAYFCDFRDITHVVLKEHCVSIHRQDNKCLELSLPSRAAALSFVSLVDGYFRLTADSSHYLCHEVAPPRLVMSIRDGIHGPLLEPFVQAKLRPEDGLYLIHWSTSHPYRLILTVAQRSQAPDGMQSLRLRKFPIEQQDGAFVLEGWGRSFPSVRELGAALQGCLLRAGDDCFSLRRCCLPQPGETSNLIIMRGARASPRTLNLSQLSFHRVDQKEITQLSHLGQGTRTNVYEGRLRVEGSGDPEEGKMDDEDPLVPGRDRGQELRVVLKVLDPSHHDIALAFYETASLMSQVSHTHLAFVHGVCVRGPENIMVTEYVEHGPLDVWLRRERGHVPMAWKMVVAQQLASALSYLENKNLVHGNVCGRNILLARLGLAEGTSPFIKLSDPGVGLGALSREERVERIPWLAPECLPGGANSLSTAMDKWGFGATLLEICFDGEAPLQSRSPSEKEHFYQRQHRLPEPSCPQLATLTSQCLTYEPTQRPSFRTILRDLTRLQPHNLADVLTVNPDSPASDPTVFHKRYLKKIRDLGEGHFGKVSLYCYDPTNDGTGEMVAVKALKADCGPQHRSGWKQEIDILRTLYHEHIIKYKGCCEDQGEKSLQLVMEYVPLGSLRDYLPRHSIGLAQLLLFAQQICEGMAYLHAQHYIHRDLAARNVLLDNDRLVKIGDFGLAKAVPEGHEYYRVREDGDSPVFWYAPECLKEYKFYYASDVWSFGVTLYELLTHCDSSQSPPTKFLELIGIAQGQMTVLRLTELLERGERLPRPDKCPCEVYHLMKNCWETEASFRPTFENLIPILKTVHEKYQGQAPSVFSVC

[34] = molecular target: Wee1-like protein kinase 2 (Homo sapiens) (UniProt P0C1S8); details: Compound concentration 100.0 nM
Wee1-like protein kinase 2 (Homo sapiens), sequence (P0C1S8 whole entry, looked up): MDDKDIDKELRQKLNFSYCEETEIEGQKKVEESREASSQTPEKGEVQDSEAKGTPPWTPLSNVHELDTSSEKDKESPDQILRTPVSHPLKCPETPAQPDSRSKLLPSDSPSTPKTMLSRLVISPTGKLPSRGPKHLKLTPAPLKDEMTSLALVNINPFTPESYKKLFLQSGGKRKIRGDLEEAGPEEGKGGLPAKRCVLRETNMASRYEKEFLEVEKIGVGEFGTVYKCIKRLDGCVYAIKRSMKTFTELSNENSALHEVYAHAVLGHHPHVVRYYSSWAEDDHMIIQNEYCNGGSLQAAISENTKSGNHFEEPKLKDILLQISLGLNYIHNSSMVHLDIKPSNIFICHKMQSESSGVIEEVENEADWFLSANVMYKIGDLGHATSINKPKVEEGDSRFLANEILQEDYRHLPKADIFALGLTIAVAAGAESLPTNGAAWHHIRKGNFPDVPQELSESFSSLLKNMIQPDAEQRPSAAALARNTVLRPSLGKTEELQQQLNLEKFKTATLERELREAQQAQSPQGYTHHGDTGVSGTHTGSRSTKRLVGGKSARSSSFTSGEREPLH

[35] = molecular target: Serine/threonine-protein kinase WNK3 (Homo sapiens) (UniProt Q9BYP7); details: Compound concentration 100.0 nM
[36] = molecular target: T1, 5-hydroxytryptamine receptor 1A (Homo sapiens) (UniProt P08908); details: Compound concentration 10.0 uM
T1 sequence (whole entry): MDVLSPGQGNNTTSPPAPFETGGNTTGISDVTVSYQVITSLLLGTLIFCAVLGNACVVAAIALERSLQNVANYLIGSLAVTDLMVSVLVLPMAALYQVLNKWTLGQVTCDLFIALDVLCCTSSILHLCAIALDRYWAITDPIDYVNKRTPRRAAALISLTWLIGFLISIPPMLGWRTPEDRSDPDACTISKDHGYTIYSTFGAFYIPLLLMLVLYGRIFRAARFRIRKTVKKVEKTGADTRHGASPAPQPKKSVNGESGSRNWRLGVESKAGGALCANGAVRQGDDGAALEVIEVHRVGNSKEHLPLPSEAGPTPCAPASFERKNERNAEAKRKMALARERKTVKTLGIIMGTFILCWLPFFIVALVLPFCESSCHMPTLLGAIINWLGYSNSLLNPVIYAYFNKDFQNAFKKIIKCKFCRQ

[37] = molecular target: 5-hydroxytryptamine receptor 2A (Homo sapiens) (UniProt P28223); details: Compound concentration 10.0 uM
[38] = molecular target: 5-hydroxytryptamine receptor 2B (Homo sapiens) (UniProt P41595); details: Compound concentration 10.0 uM
[39] = molecular target: Histamine H1 receptor (Homo sapiens) (UniProt P35367); details: Compound concentration 10.0 uM

COCCOc1nc(-c2ccc(Cl)nc2)nc2c1CN(C(=O)c1ncn3ccccc13)CC2 [THPP-1]
inactive: residual activity [1] 70% | residual activity [2] 98% | residual activity [3] 100% | residual activity [4] 100% | residual activity [5] 100% | residual activity [6] 100% | residual activity [7] 100% | residual activity [8] 97% | residual activity [9] 100% | residual activity [10] 100% | residual activity [11] 85% | residual activity [12] 100% | residual activity [13] 100% | residual activity [14] 93% | residual activity [15] 100% | residual activity [16] 96% | residual activity [17] 100% | residual activity [18] 100% | residual activity [19] 100% | residual activity [20] 97% | residual activity [21] 100% | residual activity [22] 100% | residual activity [23] 100% | residual activity [24] 100% | residual activity [25] 94% | residual activity [26] 87% | residual activity [27] 100% | residual activity [28] 88% | residual activity [29] 100% | residual activity [30] 100% | residual activity [31] 100% | residual activity [32] 100% | residual activity [33] 100% | residual activity [34] 100% | residual activity [35] 100% | inhibition [36] -0.41% | inhibition [37] -1.4% | inhibition [38] 3.25% | inhibition [39] 23.9%

CC(C)CC(=O)N1CCc2nc(-c3ccc(Br)cc3)nc(N(C)Cc3ccccc3)c2C1 [THPP-1-NC]
inactive: residual activity [1] 68% | residual activity [2] 97% | residual activity [3] 100% | residual activity [4] 100% | residual activity [5] 100% | residual activity [6] 92% | residual activity [7] 100% | residual activity [8] 90% | residual activity [9] 100% | residual activity [10] 100% | residual activity [11] 60% | residual activity [12] 100% | residual activity [13] 100% | residual activity [14] 98% | residual activity [15] 100% | residual activity [16] 77% | residual activity [17] 100% | residual activity [18] 99% | residual activity [19] 100% | residual activity [20] 89% | residual activity [21] 100% | residual activity [22] 100% | residual activity [23] 100% | residual activity [24] 100% | residual activity [25] 100% | residual activity [26] 74% | residual activity [27] 100% | residual activity [28] 68% | residual activity [29] 100% | residual activity [30] 100% | residual activity [31] 100% | residual activity [32] 100% | residual activity [33] 100% | residual activity [34] 100% | residual activity [35] 100% | inhibition [36] -0.56% | inhibition [37] 3% | inhibition [38] 7.85% | inhibition [39] 12.6%
